Measured values from patent US12264156B2, “Compounds and pharmaceutical compositions thereof for the treatment of diseases” (GALAPAGOS NV, priority 2018, dated 2025).
Like-named read-outs stand apart in the source and are kept apart here.

Experiments:
SIK1 = target: T1, SIK1 (Homo sapiens, UniProt P57059); experiment: ADP-Glo kinase assay, SIK1; assay type: biochemical; details: ADP-Glo SIK kinase assay
T1 construct: purchased Carna Biosciences 02-131
Outline: (§1)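 Enzyme–substrate mix was started with ATP and incubated 120 min at RT. ADP formed was quantified by ADP-Glo: 40 min ATP depletion, then 30 min detection reagent converting ADP to ATP for luciferase luminescence, which rises with kinase activity. Controls: 1% DMSO and 10 μM staurosporine (final).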

SIK2 = target: T2, SIK2 (Homo sapiens, UniProt Q9H0K1); experiment: ADP-Glo kinase assay, SIK2; assay type: biochemical; details: ADP-Glo SIK kinase assay
T2 construct: purchased ThermoFisher Scientific PV4792
T2 sequence (Q9H0K1 whole entry): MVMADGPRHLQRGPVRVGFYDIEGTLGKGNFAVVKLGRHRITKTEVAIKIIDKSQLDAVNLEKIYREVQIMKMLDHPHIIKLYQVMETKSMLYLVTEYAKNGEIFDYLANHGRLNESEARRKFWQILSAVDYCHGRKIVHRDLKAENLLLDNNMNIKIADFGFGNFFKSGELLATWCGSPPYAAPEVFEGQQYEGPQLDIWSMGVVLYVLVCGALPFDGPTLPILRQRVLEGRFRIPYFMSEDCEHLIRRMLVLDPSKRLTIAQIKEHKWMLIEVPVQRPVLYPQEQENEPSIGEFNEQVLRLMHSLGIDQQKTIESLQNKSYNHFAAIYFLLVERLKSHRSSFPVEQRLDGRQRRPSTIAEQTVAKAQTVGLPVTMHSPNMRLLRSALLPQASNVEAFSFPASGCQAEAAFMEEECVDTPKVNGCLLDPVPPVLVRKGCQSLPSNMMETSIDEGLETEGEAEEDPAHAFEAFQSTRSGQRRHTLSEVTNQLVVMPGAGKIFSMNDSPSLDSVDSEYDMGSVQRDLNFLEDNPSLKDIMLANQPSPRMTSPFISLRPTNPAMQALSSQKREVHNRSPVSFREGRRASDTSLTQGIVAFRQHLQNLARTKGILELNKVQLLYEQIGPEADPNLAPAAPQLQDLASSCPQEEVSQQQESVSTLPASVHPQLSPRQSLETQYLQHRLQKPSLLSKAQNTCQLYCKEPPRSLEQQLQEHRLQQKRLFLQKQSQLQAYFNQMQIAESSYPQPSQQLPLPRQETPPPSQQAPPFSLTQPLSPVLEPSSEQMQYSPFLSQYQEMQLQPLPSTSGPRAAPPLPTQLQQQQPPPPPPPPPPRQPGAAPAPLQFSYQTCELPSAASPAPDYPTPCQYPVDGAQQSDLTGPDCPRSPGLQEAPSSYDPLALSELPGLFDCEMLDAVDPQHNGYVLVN
Outline: as §1

SIK3 = target: T3, SIK3 (Homo sapiens, UniProt Q9Y2K2); experiment: ADP-Glo kinase assay, SIK3; assay type: biochemical; details: ADP-Glo SIK kinase assay
T3 construct: purchased SignalChem S12-11G-100
T3 sequence (Q9Y2K2 whole entry): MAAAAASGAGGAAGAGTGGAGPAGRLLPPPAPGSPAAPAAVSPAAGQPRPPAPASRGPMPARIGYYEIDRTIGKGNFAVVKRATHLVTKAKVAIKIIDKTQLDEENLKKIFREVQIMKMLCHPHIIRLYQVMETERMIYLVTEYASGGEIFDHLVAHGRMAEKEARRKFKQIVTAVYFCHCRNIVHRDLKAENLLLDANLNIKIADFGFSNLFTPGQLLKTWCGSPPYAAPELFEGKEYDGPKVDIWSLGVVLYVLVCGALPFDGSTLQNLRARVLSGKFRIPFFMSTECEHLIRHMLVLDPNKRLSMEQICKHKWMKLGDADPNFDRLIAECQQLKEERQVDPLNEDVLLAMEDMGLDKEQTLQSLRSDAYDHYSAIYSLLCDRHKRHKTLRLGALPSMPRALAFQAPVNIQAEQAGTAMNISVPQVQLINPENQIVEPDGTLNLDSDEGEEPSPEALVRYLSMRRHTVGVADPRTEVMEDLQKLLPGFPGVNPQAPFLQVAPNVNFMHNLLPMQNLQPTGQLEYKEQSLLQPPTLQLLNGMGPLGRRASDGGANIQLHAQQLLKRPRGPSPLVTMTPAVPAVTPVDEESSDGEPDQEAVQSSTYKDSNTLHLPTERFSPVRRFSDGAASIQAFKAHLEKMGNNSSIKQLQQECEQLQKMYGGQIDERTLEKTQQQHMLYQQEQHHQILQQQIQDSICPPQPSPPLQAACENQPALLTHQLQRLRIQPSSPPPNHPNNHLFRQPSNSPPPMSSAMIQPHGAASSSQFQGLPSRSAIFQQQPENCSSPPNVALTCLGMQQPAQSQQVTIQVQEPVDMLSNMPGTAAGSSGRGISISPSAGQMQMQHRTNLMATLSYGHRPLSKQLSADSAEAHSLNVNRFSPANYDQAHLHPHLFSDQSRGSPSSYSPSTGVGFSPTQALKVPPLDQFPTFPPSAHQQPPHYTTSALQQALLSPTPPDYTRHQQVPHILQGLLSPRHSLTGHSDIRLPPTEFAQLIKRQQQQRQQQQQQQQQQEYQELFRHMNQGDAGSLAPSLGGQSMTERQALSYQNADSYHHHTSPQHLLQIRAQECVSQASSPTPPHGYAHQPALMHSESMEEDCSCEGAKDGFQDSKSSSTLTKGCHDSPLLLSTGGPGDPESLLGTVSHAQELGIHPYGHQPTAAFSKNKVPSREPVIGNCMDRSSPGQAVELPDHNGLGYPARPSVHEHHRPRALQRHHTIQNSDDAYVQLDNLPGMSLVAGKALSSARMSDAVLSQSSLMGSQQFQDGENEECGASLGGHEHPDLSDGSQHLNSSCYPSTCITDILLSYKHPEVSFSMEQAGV
Outline: as §1

[1] = tested on: LPS-induced TNFα in monocyte-derived macrophages (MdM); experiment: MdM assay: LPS-triggered TNFα (ELISA); assay type: cell-based, human
Outline: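 Human monocyte-derived macrophages from CD14+ bead-selected buffy-coat PBMCs, used on day 10, pre-treated with compound for 1 h at 37 °C (0.2% DMSO), then stimulated with 200 ng/mL LPS. Supernatant taken after 20 h for TNFα sandwich ELISA (IL-10 at 2 h).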

[2] = monocyte-derived macrophages, LPS 200 ng/mL, supernatant after 20 h, read-out: TNFα EC50
[3] = Homo sapiens, Macrophage, 20 h, monocyte-derived macrophages, LPS 200 ng/mL, supernatant after 20 h, read-out: TNFα EC50

T1 sequence (P57059 whole entry): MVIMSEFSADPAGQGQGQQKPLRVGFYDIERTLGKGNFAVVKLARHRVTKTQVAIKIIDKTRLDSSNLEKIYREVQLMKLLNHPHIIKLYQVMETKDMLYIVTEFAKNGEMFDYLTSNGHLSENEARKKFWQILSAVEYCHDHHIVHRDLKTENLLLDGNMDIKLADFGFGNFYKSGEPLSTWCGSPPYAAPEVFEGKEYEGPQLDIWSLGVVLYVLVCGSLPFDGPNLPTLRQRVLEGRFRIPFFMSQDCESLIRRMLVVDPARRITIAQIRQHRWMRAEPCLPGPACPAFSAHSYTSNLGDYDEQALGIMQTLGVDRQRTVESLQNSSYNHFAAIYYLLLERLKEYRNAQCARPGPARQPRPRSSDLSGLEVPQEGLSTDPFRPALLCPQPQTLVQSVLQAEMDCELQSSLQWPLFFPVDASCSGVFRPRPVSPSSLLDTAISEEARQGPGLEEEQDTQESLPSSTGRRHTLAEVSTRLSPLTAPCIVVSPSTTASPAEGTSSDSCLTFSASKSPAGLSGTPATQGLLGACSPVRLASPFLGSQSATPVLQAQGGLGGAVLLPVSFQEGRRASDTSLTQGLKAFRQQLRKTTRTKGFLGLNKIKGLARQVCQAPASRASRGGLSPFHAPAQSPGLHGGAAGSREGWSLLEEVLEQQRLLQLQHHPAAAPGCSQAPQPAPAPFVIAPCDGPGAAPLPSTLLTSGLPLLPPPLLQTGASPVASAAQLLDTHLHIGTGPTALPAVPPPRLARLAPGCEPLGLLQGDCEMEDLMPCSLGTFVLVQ

## COc1cc(-c2cnc3cc(OCC(O)CN4CCOCC4)ccn23)cc(OC(F)F)c1C(=O)NC1CC1 (single isomer, unassigned) [Cpd 386, N-cyclopropyl-2-(difluoromethoxy)-4-[7-(2-hydroxy-3-morpholino-propoxy)imidazo[1,2-a]pyridin-3-yl]-6-methoxy-benzamide]
SIK1
  IC50: 10 to 100 nM
SIK2
  IC50: 0.01 to 10 nM
SIK3
  IC50: 0.01 to 10 nM
[1]; [2]
  EC50: 100 to 1000 nM

## COc1cc(-c2cnc3cc(OCC(O)CN4CCOCC4)ccn23)cc(OC(F)F)c1C(=O)NC1CC1 (single isomer, unassigned) [Cpd 387, N-cyclopropyl-2-(difluoromethoxy)-4-[7-(2-hydroxy-3-morpholino-propoxy)imidazo[1,2-a]pyridin-3-yl]-6-methoxy-benzamide]
SIK1
  IC50: 10 to 100 nM
SIK2
  IC50: 0.01 to 10 nM
SIK3
  IC50: 0.01 to 10 nM
[1]; [2]
  EC50: 0.1 to 100 nM

## COc1cc(-c2cnc3cc(OCCN(C)C)ccn23)cc(OC(F)F)c1C(=O)NC1CC1 [Cpd 6, N-cyclopropyl-2-(difluoromethoxy)-4-[7-[2-(dimethylamino)ethoxy]imidazo[1,2-a]pyridin-3-yl]-6-methoxy-benzamide]
SIK1
  IC50: 100 to 500 nM
SIK2
  IC50: 0.01 to 10 nM
SIK3
  IC50: 0.01 to 10 nM
[1]; [3]
  EC50: 100 to 1000 nM

## COc1cc(-c2cnc3cc(OCCCN(C)C)ccn23)cc(OC(F)F)c1C(=O)NC1CC1 [Cpd 13]
SIK1
  IC50: 10 to 100 nM
SIK2
  IC50: 0.01 to 10 nM
SIK3
  IC50: 0.01 to 10 nM
[1]; [3]
  EC50: 0.1 to 100 nM

## COc1cc(-c2cnc3cc(OCC4CN(C)C4)ccn23)cc(OC(F)F)c1C(=O)NC1CC1 [Cpd 14, N-cyclopropyl-2-(difluoromethoxy)-6-methoxy-4-[7-[(1-methylazetidin-3-yl)methoxy]imidazo[1,2-a]pyridin-3-yl]benzamide]
SIK1
  IC50: 10 to 100 nM
SIK2
  IC50: 0.01 to 10 nM
SIK3
  IC50: 0.01 to 10 nM
[1]; [3]
  EC50: 100 to 1000 nM

## COc1cc(-c2cnc3cc(OCCN(C)C)ccn23)cc2c1C(=O)N(CC(F)(F)F)CC2 [Cpd 18, 6-[7-[2-(dimethylamino)ethoxy]imidazo[1,2-a]pyridin-3-yl]-8-methoxy-2-(2,2,2-trifluoroethyl)-3,4-dihydroisoquinolin-1-one]
SIK1
  IC50: > 500 nM
SIK2
  IC50: 0.01 to 10 nM
SIK3
  IC50: 10 to 100 nM
[1]; [3]
  EC50: 100 to 1000 nM

## COc1cc(-c2cnc3cc(OC[C@H]4COCCO4)ccn23)cc2c1C(=O)N(CC(F)(F)F)CC2 [Cpd 86, 6-[7-[[(2R)-1,4-dioxan-2-yl]methoxy]imidazo[1,2-a]pyridin-3-yl]-8-methoxy-2-(2,2,2-trifluoroethyl)-3,4-dihydroisoquinolin-1-one]
SIK1
  IC50: 100 to 500 nM
SIK2
  IC50: 10 to 100 nM
SIK3
  IC50: 0.01 to 10 nM
[1]; [3]
  EC50: 100 to 1000 nM

## COc1cc(-c2cnc3cc(OCCN4CCOCC4)ccn23)cc2c1C(=O)N(CC(F)(F)F)CC2 [Cpd 88, 8-methoxy-6-[7-(2-morpholinoethoxy)imidazo [1,2-a]pyridin-3-yl]-2-(2,2,2-trifluoroethyl)-3,4-dihydroisoquinolin-1-one]
[1]; Homo sapiens, Macrophage, 20 h, read-out: TNFα EC50 (nM)
  EC50: 100 to 1000 nM

## COc1cc(-c2cnc3cc(OCCC4CCCN4C)ccn23)cc2c1C(=O)N(CC(F)(F)F)CC2 (centres unmarked) [Cpd 122, 8-methoxy-6-[7-[2-(1-methylpyrrolidin-2-yl)ethoxy]imidazo[1,2-a]pyridin-3-yl]-2-(2,2,2-trifluoroethyl)-3,4-dihydroisoquinolin-1-one]
SIK1
  IC50: 100 to 500 nM
SIK2
  IC50: 0.01 to 10 nM
SIK3
  IC50: 0.01 to 10 nM
[1]; [3]
  EC50: 100 to 1000 nM

## CN(C)CCOc1ccn2c(-c3cc4c(c(OC(F)F)c3)C(=O)N(CC(F)F)CC4)cnc2c1 [Cpd 150, 2-(2,2-difluoroethyl)-8-(difluoromethoxy)-6-[7-[2-(dimethylamino)ethoxy]imidazo[1,2-a]pyridin-3-yl]-3,4-dihydroisoquinolin-1-one]
SIK1
  IC50: 100 to 500 nM
SIK2
  IC50: 0.01 to 10 nM
SIK3
  IC50: 0.01 to 10 nM
[1]; [3]
  EC50: 100 to 1000 nM

## CNc1cc(-c2cnc3cc(OCCN(C)C)ccn23)cc(OC(F)F)c1C(=O)NCC(F)(F)F [Cpd 165, 2-(difluoromethoxy)-4-[7-[2-(dimethylamino)ethoxy]imidazo[1,2-a]pyridin-3-yl]-6-(methylamino)-N-(2,2,2-trifluoroethyl)benzamide]
SIK1
  IC50: 100 to 500 nM
SIK2
  IC50: 0.01 to 10 nM
SIK3
  IC50: 0.01 to 10 nM
[1]; [3]
  EC50: 100 to 1000 nM
